From the METLIN SMRT retention time set (Domingo-Almenara et al. 2019)

Test: gradient 5% acetonitrile 3 min, to 50% in 2 min, to 85% in 15 min, held 3 min, 100 µL/min
Conditions: column: Zorbax Extend-C18 2.1 x 50 mm; eluents: water / acetonitrile, 0.1% formic acid
Procedure, shortened: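 Retention times of pure standards were taken from adduct peaks that were selected by computer and manually inspected. Over 3 months, mixtures of ~100 molecules were run by HPLC–quadrupole time-of-flight mass spectrometry in positive and negative ionization mode. The Zorbax Extend-C18 column (2.1 × 50 mm, 1.8 μm) ran at 100 μL/min in water and acetonitrile, each containing 0.1% formic acid, with 40 μL dead volume and 900 μL dwell volume.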

| RP-LC retention time [s] | SMILES |
| --- | --- |
| 1010 | O=C(NCC1CC1)c1nnn(Cc2ccc(Cl)cc2)c1-n1cccc1 |
| 768 | O=C(Nc1ccc2c(c1)OCCO2)c1ccc(-c2ccnc(N3CCCC3)n2)cc1 |
| 613 | COc1cc(OC)cc(C(=O)NC2CCN(Cc3c(C)noc3C)C2)c1 (configuration not stated) |
| 1090 | Cc1ccc(-c2nnc(Cc3nc(-c4ccccc4)no3)o2)cc1C |
| 791 | O=S(=O)(c1ccc(F)c(Cl)c1)N1CC(F)(F)C[C@H]1CN1CCc2ccccc2C1 |
| 600 | Cc1cc(N2CCCC2)n2nc(CN3CCN(c4ccccc4)CC3)nc2n1 |
| 880 | Cc1ccc(N2CC(c3nc(-c4ccc5c(c4)nnn5C)no3)CC2=O)cc1C (configuration not stated) |
| 867 | CN(C)c1cccc(C(=O)N2CCC3(CC2)N=C(c2ccc(Br)cc2)NO3)c1 |
| 677 | CC1CCCN(CC2CCN(S(=O)(=O)CCc3ccccc3)CC2)C1 (configuration not stated) |
| 599 | O=C(NCC(=O)N1CCc2ccccc21)c1ccc(=O)[nH]c1 |
| 916 | Cc1cc(C)cc(NC(=O)Cn2c(=O)c(CCC(=O)NC3CCCC3)nc3ccccc32)c1 |
| 659 | COc1ccc(C(=O)N2CCC[C@H]2c2nc(-c3ccccc3)n[nH]2)cn1 |
| 915 | O=C(Cn1cccc1-c1nnc(C2CCC2)o1)N1CCc2ccccc2C1 |
| 972 | CCOC(=O)c1ccc(N2C=C(C#N)S(=O)(=O)c3ccc(F)cc32)cc1 |
| 1020 | CCc1nc(-c2cc(S(=O)(=O)N3CCC(C(=O)Nc4cccc(C#N)c4)CC3)c(C)s2)no1 |
| 888 | O=C(NCCCn1cccc1)c1cc(-c2ccccc2)on1 |
| 674 | CC(=O)c1ccc(Oc2ccc(/C(C)=N\N=C(N)N)cc2)cc1 |
| 804 | O=C(Nc1ccc2nccnc2c1)c1csc2c1CCCC2 |
| 1000 | Cc1onc(-c2ccccn2)c1C(=O)NCCc1c[nH]c2ccc(Cl)cc12 |
| 650 | CC(C)c1nc2c(c(=O)n1CC(=O)NCc1cccs1)CN(Cc1ccccc1)CC2 |
| 613 | CCN1CCN(C(=O)CC(c2cc(OC)c(OC)c(OC)c2)N2Cc3ccccc3C2=O)CC1 (configuration not stated) |

| RP-LC retention time [s] | SMILES |
| --- | --- |
| 823 | CCOC(=O)c1cc(S(=O)(=O)N2CCCC2C(=O)NCc2cccs2)cn1C (configuration not stated) |
| 974 | COc1ccccc1-c1noc(CN2C(=O)COc3cc(Cl)ccc32)n1 |
| 1460 | Cc1ccc(Nc2cc(C)nc(N3CCN(C(=O)Nc4cccc(C)c4)CC3)n2)cc1 |
| 892 | CC(C)NC(=O)N(CC(=O)N1CCc2sccc2C1COc1ccccc1)C(C)C (configuration not stated) |
| 1000 | O=C(c1cc(-c2ccc(F)cc2)c[nH]1)N1CCc2ccccc21 |
| 821 | Cc1ccc(-c2cn3c(CC(=O)Nc4ccc(C#N)cc4)csc3n2)cc1C |
| 699 | COC(=O)c1ncoc1-c1ccccc1C(=O)NC1CCCC1 |
| 1120 | Cc1ccccc1-n1c(=O)c2sccc2n(Cc2nc(-c3ccc(C(F)(F)F)cc3)no2)c1=O |
| 991 | CCc1ccc(-n2nc(N3CCCC(C(=O)NCc4cccc(Br)c4)C3)ccc2=O)cc1 (configuration not stated) |
| 695 | O=S(=O)(Cc1c(F)cccc1Cl)N1CCC(CN2CCCCCC2)CC1 |
| 1030 | CC(=O)c1ccc(NC(=O)c2cnc(-c3ccc(C(F)(F)F)cc3)nc2C)cc1 |
| 790 | O=C(COc1ccc(-c2nnc3n2CCCC3)cc1)N1CCc2ccccc21 |
| 974 | COc1ccc(-c2noc(Cn3nc(-c4cccc(OC)c4)ccc3=O)n2)cc1 |
| 713 | COc1ccccc1CNC(=O)[C@@H]1[C@H](c2cc(OC)c(OC)c(OC)c2)c2cc3c(cc2[C@H](O)[C@H]1CO)OCO3 |
| 565 | O=C(CC1C(=O)NCCN1C(=O)CN1CCN(c2ccccn2)CC1)Nc1ccccc1 (configuration not stated) |
| 770 | CC(=O)Nc1cccc(N2CC(C(=O)Nc3ccc(C(F)(F)F)cc3)CC2=O)c1 (configuration not stated) |
| 625 | COCCNc1c(-c2ccc(F)cc2)nc2sc(C(=O)NCc3ccncc3)c(C)n12 |
| 1060 | COc1ccc(-c2noc(Cc3nnc(-c4ccc(Cl)cc4)o3)n2)cc1 |
| 730 | O=C(CC1CCN(C(=O)c2ccc3nc(-c4ccccc4)oc3c2)CC1)NC1CC1 |
| 863 | Cc1ccsc1C(=O)Nc1ccc(N2CCN(C3CCCCC3)C2=O)nc1 |
| 635 | COc1ccc(NC(=O)N2CCC(c3nc(C(=O)N(C)C)c(C)o3)CC2)cc1OC |

| RP-LC retention time [s] | SMILES |
| --- | --- |
| 928 | O=C(Cn1nc2c(N3CCN(c4ccccc4)CC3)nccn2c1=O)Nc1ccccc1Cl |
| 637 | Cc1ccc(CNC(=O)c2ccc3ncnc(N4CCCCC4)c3c2)o1 |
| 679 | CCc1nnc(NC(=O)C2CCN(C(=O)c3ccc(F)cc3)CC2)s1 |
| 898 | Cc1cccc(C(=O)Nc2ccc3c(c2)Sc2ncccc2C(=O)N3C(C)C)c1 |
| 714 | CCn1cnc2ccc(C(=O)NC3CC3)cc2c1=O |
| 795 | O=C(NCc1ccc(F)cc1F)c1csc(C(=O)N2CCCC2)n1 |
| 733 | CCNC(=O)C1CCN(C(=O)Nc2ccc(NC(=O)Nc3ccc(CC)cc3)cc2)CC1 |
| 1070 | Cc1ccc(C)c(Cn2nc3c(S(=O)(=O)N4CCc5ccccc5C4)cccn3c2=O)c1 |
| 774 | CCN1CCC(N(Cc2ccc3c(c2)OCO3)C(=O)Nc2cc(Cl)ccc2C(=O)OC)CC1 |
| 799 | COC(=O)CCNC(=O)C1c2ccccc2C(=O)N(Cc2ccco2)C12CCCCC2 (configuration not stated) |
| 1030 | Cc1nnc2ccc(-c3noc(-c4ccc(Br)cc4)n3)cn12 |
| 1180 | CC(C)Cc1nc(-c2ccccc2)oc1CC(=O)Nc1ccc(F)cc1Cl |
| 710 | CC(=O)Nc1ccc(C2(C(=O)NCc3cccs3)CCC2)cc1 |
| 660 | CC1(C(=O)NCc2ccccc2)Cn2cnc(C(=O)NC3CC3)c2C(=O)N1C1CC1 (configuration not stated) |
| 666 | Cc1nnc(C2CC3(CCN(CCc4ccccc4)CC3)CN2CCc2ccccc2)o1 (configuration not stated) |
| 758 | COc1ccc2c(CCNC(=O)c3cc(OC)c(OC)c(OC)c3)c[nH]c2c1 |
| 1130 | CCOc1cccc(C2c3[nH]c4ccccc4c3CCN2C(=O)c2ccco2)c1 (configuration not stated) |
| 826 | CN1C(=O)c2ccccc2Oc2ccc(C(=O)NCc3ccc4c(c3)OCO4)cc21 |
| 743 | CCCCC(=O)N1CCC2(C1)C(=O)N(C)c1ccccc12 (configuration not stated) |
| 573 | CCC(=O)Nc1ccc(N2CCN(CC(=O)N(C)C)CC2)cc1C(=O)O |
| 731 | COC(=O)c1ncn2c1C(=O)N(c1cc(C)ccc1C)C(C)(C(=O)NCc1ccccc1)C2 (configuration not stated) |

| RP-LC retention time [s] | SMILES |
| --- | --- |
| 757 | O=C(NCCC1CCN(C(=O)Nc2ccc(F)cc2F)CC1)c1ccsc1 |
| 884 | N#CCc1ccc(NC(=O)C2CCCN(S(=O)(=O)Cc3ccc(F)cc3)C2)cc1 (configuration not stated) |
| 914 | COc1ccc(OCc2nc(-c3cccc(-c4ccn[nH]4)c3)no2)cc1 |
| 973 | COc1ccc(-c2ccnc3nc(Cc4cc(F)cc(F)c4)nn23)c(F)c1 |
| 1070 | Cc1cc(C)cc(NC(=O)Cc2csc3nc(-c4cccc(Cl)c4)cn23)c1 |
| 692 | COc1ccc(N(Cc2nnc3n2CCCCC3)C(=O)Nc2ccccc2)cc1OC |
| 954 | N#CCCSc1ccccc1NC(=O)c1cc2cc([N+](=O)[O-])ccc2s1 |
| 902 | COCCOC(=O)c1cn(-c2cccc(OC)c2)c(=O)c2ccccc12 |
| 745 | O=C(Cc1noc2ccccc12)N1CCN(c2cc(-c3ccccc3)ncn2)CC1 |
| 693 | Cn1c(C(=O)N2CCCC(C(=O)NCCc3ccc(S(N)(=O)=O)cc3)C2)cc2sccc21 (configuration not stated) |
| 1050 | COc1cc(N2C=C(C#N)S(=O)(=O)c3ccc(Cl)cc32)c(OC)cc1Cl |
| 872 | CCOC(=O)c1ccc(NC(=O)Cn2c(=O)nc(N3CCC(C)CC3)c3ccccc32)cc1 |
| 1020 | CCc1ccc(-c2csc(NC(=O)C3CCCO3)n2)cc1 (configuration not stated) |
| 790 | Cn1c(=O)n(C)c2cc(S(=O)(=O)c3ccc(F)cc3)c(NC(=O)Cc3cccs3)cc21 |
| 914 | O=C(NCc1ccc(F)cc1)N1CCCC1c1nc(-c2ccccc2)no1 (configuration not stated) |
| 692 | COc1ccc(-c2cn3c(CC(=O)NCCc4cccs4)csc3n2)cc1OC |
| 841 | CC(C)CCNC(=O)C1CCCN(S(=O)(=O)c2ccc3nc(-c4ccccc4)[nH]c3c2)C1 (configuration not stated) |
| 888 | COc1ccc(Cn2cc(S(=O)(=O)N3CCCCC3)ccc2=O)cc1 |
| 756 | Cn1cc(-c2cc3n(n2)CCC(=O)N3CC(=O)NCc2ccco2)c2ccccc21 |

| SMILES | RP-LC retention time [s] |
| --- | --- |
| O=C(C1CC(=O)N(c2ccc3c(c2)CCN3C(=O)C2CC2)C1)N1CCC2(CC1)OCCO2 (configuration not stated) | 652 |
| COc1ccc2c(c1)C1(CCN(C(=O)NCCC(C)C)C1)C(=O)N2C (configuration not stated) | 770 |
| Cc1c(C(=O)c2ccccc2)c2ccccc2n1C | 1030 |
| Cc1ccc(C)c(Cn2nnc(C(=O)O)c2C)c1 | 783 |
| Cc1ncc2c(n1)C[C@@H]1CC[C@H]2N1C(=O)NCc1ccccc1 | 642 |
